Data from patent US8022225B2, “Triazole derivative” (Taisho Pharmaceutical Co., Ltd, priority 2004, dated 2011).

Experiments:
[1] = target: T1, human Edg-1(S1P1) (Homo sapiens, UniProt P21453); assay: Membrane system binding test: inhibition of [33P]-S1P binding to the membrane fraction of Edg-1(S1P1) gene transferred HEK-293 cells; settings: 10 μM compound, [33P]-S1P 0.1 nM, membrane fraction of Edg-1(S1P1) gene transferred HEK-293 cells; for inhibition at 10 µM: read-out: Membrane system binding test % inhibition (10 μM)
T1 construct: expressed in transfected cells; host or cells: HEK-293
T1 sequence (P21453 whole entry): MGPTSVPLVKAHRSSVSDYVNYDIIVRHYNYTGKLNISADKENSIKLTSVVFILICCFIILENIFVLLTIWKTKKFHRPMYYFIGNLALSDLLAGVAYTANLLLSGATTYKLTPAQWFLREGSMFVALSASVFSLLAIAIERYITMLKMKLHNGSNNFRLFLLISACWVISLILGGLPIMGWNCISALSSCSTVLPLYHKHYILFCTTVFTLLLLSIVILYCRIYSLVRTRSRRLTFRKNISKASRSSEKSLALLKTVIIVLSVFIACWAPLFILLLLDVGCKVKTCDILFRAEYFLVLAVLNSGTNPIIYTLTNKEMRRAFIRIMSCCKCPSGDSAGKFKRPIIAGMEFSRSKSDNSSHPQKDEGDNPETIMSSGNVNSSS
How it was run: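 Compound tested at 10^−5 M final (0.1% DMSO) for blocking 0.1 nM [^33P]-S1P binding to S1P1-expressing HEK-293 membranes, 30 °C, 1 h. Radioactivity retained on filters was counted, and percent inhibition derived relative to vehicle binding, correcting for the background of non-transfected HEK-293 membranes.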

[2] = target: T1, human Edg-1(S1P1); assay: Cell system binding test: inhibition of [3H]-S1P binding to Edg-1(S1P1) gene transferred HEK-293 cells; settings: 10 μM compound, [3H]-S1P 10 nM, read-out: Cell system binding test % inhibition (10 μM)

Row | Compound | inhibition at 10 µM [1] | inhibition at 10 µM [2] | Membrane system binding test % inhibition (10 μM) [1]
1 | CCn1c(SCc2ccc(C)cc2)nnc1[C@@H](C)NS(=O)(=O)c1ccc(Cl)cc1 [Compound 59] | 96.9% | 93.2% | –
2 | CCn1c(SCc2ccc(SC)cc2)nnc1[C@@H](C)NS(=O)(=O)c1ccc(Cl)cc1 [Compound 60] | 97.2% | 90.3% | –
3 | CCn1c(SCCc2ccccc2)nnc1[C@@H](C)NS(=O)(=O)c1ccc(Cl)cc1 [Compound 61] | 98.9% | 95% | –
4 | CCn1c(SCCc2ccccn2)nnc1[C@@H](C)NS(=O)(=O)c1ccc(Cl)cc1 [Compound 62] | 90.6% | 92.9% | –
5 | CCn1c(SCc2ccccn2)nnc1[C@@H](C)NS(=O)(=O)c1ccc(Cl)cc1 [Compound 63] | 99.7% | 93.7% | –
6 | CCn1c(SCc2ccncc2)nnc1[C@@H](C)NS(=O)(=O)c1ccc(Cl)cc1 [Compound 64] | 86.5% | 91.3% | –
7 | CCn1c(SCC2CCCN(C)C2)nnc1[C@@H](C)NS(=O)(=O)c1ccc(Cl)cc1 (stereo partly shown) [Compound 65] | 83.1% | 83.3% | –
8 | CCn1c(SCCCCCCN(C)C)nnc1[C@@H](C)NS(=O)(=O)c1ccc(Cl)cc1 [Compound 66] | 90.6% | 84% | –
9 | CCn1c(SCCCN(C)C)nnc1[C@@H](C)NS(=O)(=O)c1ccc(Cl)cc1 [Compound 67] | 42.2% | 73.8% | –
10 | CCn1c(SCCCc2ccncc2)nnc1[C@@H](C)NS(=O)(=O)c1ccc(Cl)cc1 [Compound 68] | 97.9% | 93% | –
11 | CCn1c(SCCc2ccncc2)nnc1[C@@H](C)NS(=O)(=O)c1ccc(Cl)cc1 [Compound 69] | 92.7% | 89.5% | –
12 | CCn1c(SC2CCN(C)CC2)nnc1[C@@H](C)NS(=O)(=O)c1ccc(Cl)cc1 [Compound 70] | 98% | 88.4% | –
13 | CCn1c(SCc2cccc(N(C)C)c2)nnc1[C@@H](C)NS(=O)(=O)c1ccc(Cl)cc1 [Compound 71] | 104% | 89.7% | –
14 | CCn1c(SCC2CCN(Cc3ccccc3)CC2)nnc1[C@@H](C)NS(=O)(=O)c1ccc(Cl)cc1 [Compound 72] | 95.8% | 89.8% | –
15 | CCn1c(SCCN2CCNC2=O)nnc1[C@@H](C)NS(=O)(=O)c1ccc(Cl)cc1 [Compound 73] | 98.4% | 93.9% | –
16 | CCn1c(SCCNC(=O)c2ccncc2)nnc1[C@@H](C)NS(=O)(=O)c1ccc(Cl)cc1 [Compound 74] | 109% | 93.6% | –
17 | CCN(CCSc1nnc([C@@H](C)NS(=O)(=O)c2ccc(Cl)cc2)n1CC)c1ccccc1 [Compound 75] | 99.4% | 92.7% | –
18 | CCn1c(SCCC2CCN(C)CC2)nnc1[C@@H](C)NS(=O)(=O)c1ccc(Cl)cc1 [Compound 76] | 101% | 97.3% | –
19 | CCn1c(SCCc2ccc(N(C)C)cc2)nnc1[C@@H](C)NS(=O)(=O)c1ccc(Cl)cc1 [Compound 77] | 96.4% | 89.4% | –
20 | CCn1c(SCCN2CCCC2=O)nnc1[C@@H](C)NS(=O)(=O)c1ccc(Cl)cc1 [Compound 78] | 96.5% | 83% | –

Row | Compound | inhibition at 10 µM [1] | inhibition at 10 µM [2] | Membrane system binding test % inhibition (10 μM) [1]
21 | CCn1c(SCCCN2CCCC2=O)nnc1[C@@H](C)NS(=O)(=O)c1ccc(Cl)cc1 [Compound 79] | 94.9% | 84.7% | –
22 | CCn1c(SCCS(=O)(=O)c2ccccc2)nnc1[C@@H](C)NS(=O)(=O)c1ccc(Cl)cc1 [Compound 80] | 87.5% | 86.2% | –
23 | CCn1c(SCc2ccc([N+](=O)[O-])cc2)nnc1[C@@H](C)NS(=O)(=O)c1ccc(Cl)cc1 [Compound 81] | 110% | 87.6% | –
24 | CCn1c(SCc2ccc(NC(C)=O)cc2)nnc1[C@@H](C)NS(=O)(=O)c1ccc(Cl)cc1 [Compound 82] | 90.4% | 84.7% | –
25 | CCn1c(SCC(N)=O)nnc1[C@@H](C)NS(=O)(=O)c1ccc(Cl)cc1 [Compound 83] | 99.5% | 85.6% | –
26 | CCn1c(SCCn2ccnc2)nnc1[C@@H](C)NS(=O)(=O)c1ccc(Cl)cc1 [Compound 84] | 100% | 87.9% | –
27 | CCn1c(SCCc2c[nH]c3ccccc23)nnc1[C@@H](C)NS(=O)(=O)c1ccc(Cl)cc1 [Compound 85] | 106% | 90.4% | –
28 | CCn1c(SCCC23CC4CC(CC(C4)C2)C3)nnc1[C@@H](C)NS(=O)(=O)c1ccc(Cl)cc1 [Compound 86] | 110% | 93.4% | –
29 | CCn1c(SCCCC(C)=O)nnc1[C@@H](C)NS(=O)(=O)c1ccc(Cl)cc1 [Compound 87] | 84.7% | 82.7% | –
30 | CCn1c(SCCC(C)(C)C)nnc1[C@@H](C)NS(=O)(=O)c1ccc(Cl)cc1 [Compound 88] | 97.1% | 87.6% | –
31 | C=CCSc1nnc(C(C)NS(=O)(=O)c2ccc(Cl)cc2)n1C (stereo not shown) [Compound 91] | 47.4% | 72.9% | –
32 | C=CCSc1nnc([C@@H](C)NS(=O)(=O)c2ccc(Cl)cc2)n1CCC [Compound 95] | 60.2% | 94% | –
33 | C=CCSc1nnc([C@@H](C)NS(=O)(=O)c2ccc(Cl)cc2)n1C(C)C [Compound 97] | 52.5% | 88.9% | –
34 | C=CCSc1nnc(CNS(=O)(=O)c2ccc(Cl)cc2)n1CC [Compound 104] | 42.1% | 99.5% | –
35 | C=CCSc1nnc([C@@H](CC)NS(=O)(=O)c2ccc(Cl)cc2)n1C [Compound 106] | – | 86.9% | 52.5%
36 | C=CCSc1nnc(C(CC)NS(=O)(=O)c2ccc(Cl)cc2)n1CC (stereo not shown) [Compound 109] | 100% | 93% | –
37 | C=CCSc1nnc([C@@H](CC)NS(=O)(=O)c2ccc(Cl)cc2)n1CCC [Compound 113] | – | 84% | 46.3%
38 | C=CCSc1nnc([C@@H](CC)NS(=O)(=O)c2ccc(Cl)cc2)n1C(C)C [Compound 117] | 83.8% | 93.6% | –
39 | C=CCSc1nnc([C@@H](Cc2ccccc2)NS(=O)(=O)c2ccc(Cl)cc2)n1C [Compound 134] | 84.8% | 88.8% | –

Results, then the compound that gave them:

Row | inhibition at 10 µM [1] | inhibition at 10 µM [2] | Membrane system binding test % inhibition (10 μM) [1] | Compound
40 | 96.9% | 86.7% | – | C=CCSc1nnc(C(Cc2ccccc2)NS(=O)(=O)c2ccc(Cl)cc2)n1C (stereo not shown) [Compound 135]
41 | 94.7% | 103% | – | C=C(C)CSc1nnc(C(Cc2ccccc2)NS(=O)(=O)c2ccc(Cl)cc2)n1C (stereo not shown) [Compound 136]
42 | 57.1% | 99% | – | Cn1c(SCc2ccc(Cl)c(Cl)c2)nnc1C(Cc1ccccc1)NS(=O)(=O)c1ccc(Cl)cc1 (stereo not shown) [Compound 137]
43 | 102% | 94.7% | – | C=CCSc1nnc([C@@H](Cc2ccccc2)NS(=O)(=O)c2ccc(Cl)cc2)n1CC [Compound 138]
44 | 107% | 91% | – | CCCSc1nnc([C@@H](Cc2ccccc2)NS(=O)(=O)c2ccc(Cl)cc2)n1CC [Compound 139]
45 | 79.5% | 94.8% | – | C=CCSc1nnc([C@@H](Cc2ccccc2)NS(=O)(=O)c2ccc(Cl)cc2)n1CCC [Compound 141]
46 | 88.7% | 96% | – | C=CCSc1nnc([C@@H](Cc2ccccc2)NS(=O)(=O)c2ccc(Cl)cc2)n1C(C)C [Compound 143]
47 | 72.9% | 67.5% | – | C=CCSc1nnc(C(Cc2ccccc2)NS(=O)(=O)c2ccc(F)cc2)n1CC (stereo not shown) [Compound 169]
48 | 86.6% | 87.4% | – | CCn1c(OC)nnc1[C@@H](C)NS(=O)(=O)c1ccc(Cl)cc1 [Compound 185]
49 | 94.5% | 89.3% | – | CCOc1nnc([C@@H](C)NS(=O)(=O)c2ccc(Cl)cc2)n1CC [Compound 186]
50 | 46.4% | 82.9% | – | CCn1c(OCCN(C)C)nnc1[C@@H](C)NS(=O)(=O)c1ccc(Cl)cc1 [Compound 187]
51 | 46.3% | 82% | – | CCn1c(OCCCN(C)C)nnc1[C@@H](C)NS(=O)(=O)c1ccc(Cl)cc1 [Compound 188]
52 | 107% | 105% | – | CCn1c(OCCCCCCN(C)C)nnc1[C@@H](C)NS(=O)(=O)c1ccc(Cl)cc1 [Compound 189]
53 | 41.3% | 91.1% | – | CCn1c(OCCO)nnc1[C@@H](C)NS(=O)(=O)c1ccc(Cl)cc1 [Compound 190]
54 | 88.3% | 97.1% | – | CCn1c(OCCCO)nnc1[C@@H](C)NS(=O)(=O)c1ccc(Cl)cc1 [Compound 191]
55 | 105% | 75.5% | – | CCCCCCCCCCCCCCCCOc1nnc([C@@H](C)NS(=O)(=O)c2ccc(Cl)cc2)n1CC [Compound 192]
56 | 64.4% | 108% | – | CCn1c(OC)nnc1[C@H](C)NS(=O)(=O)c1cccc(Cl)c1 [Compound 193]
57 | 91.2% | 103% | – | CCCOc1nnc([C@@H](C)NS(=O)(=O)c2ccc(OC)cc2)n1CC [Compound 195]
58 | 88.5% | 106% | – | CCCOc1nnc([C@@H](C)NS(=O)(=O)c2ccc(C)cc2)n1CC [Compound 196]
59 | 46.7% | 92.5% | – | CCn1c(OC)nnc1[C@H](C)NS(=O)(=O)c1ccc(NC(C)=O)cc1 [Compound 198]
